Experimental data from patent publication US8614223B2, “Pyrimidine hydroxy amide compounds as protein deacetylase inhibitors and methods of use thereof” (Acetylon Pharmaceuticals, Inc., priority 2010, dated 2013).

How the values were obtained:
[1] = target: HDAC6 (Homo sapiens (Human), UniProt Q9UBN7); conditions: read-out: HDAC6 IC50
[2] = target: HDAC1 (Homo sapiens (Human), UniProt Q13547); assay: HDAC enzyme assay, HDAC1; conditions: for HDAC1 fold over HDAC6 IC50 (selectivity for HDAC6): ratio HDAC1/HDAC6; for IC50: read-out: HDAC1 IC50
[3] = target: HDAC2 (Homo sapiens (Human), UniProt Q92769); assay: HDAC enzyme assay, HDAC2; conditions: for HDAC2 fold over HDAC6 IC50 (selectivity for HDAC6): ratio HDAC2/HDAC6; for IC50: read-out: HDAC2 IC50
[4] = target: HDAC3 (Homo sapiens (Human), UniProt O15379); assay: HDAC enzyme assay, HDAC3; conditions: for HDAC3 fold over HDAC6 IC50 (selectivity for HDAC6): ratio HDAC3/HDAC6; for IC50: read-out: HDAC3 IC50
Chain of HDAC3 (O15379 whole entry): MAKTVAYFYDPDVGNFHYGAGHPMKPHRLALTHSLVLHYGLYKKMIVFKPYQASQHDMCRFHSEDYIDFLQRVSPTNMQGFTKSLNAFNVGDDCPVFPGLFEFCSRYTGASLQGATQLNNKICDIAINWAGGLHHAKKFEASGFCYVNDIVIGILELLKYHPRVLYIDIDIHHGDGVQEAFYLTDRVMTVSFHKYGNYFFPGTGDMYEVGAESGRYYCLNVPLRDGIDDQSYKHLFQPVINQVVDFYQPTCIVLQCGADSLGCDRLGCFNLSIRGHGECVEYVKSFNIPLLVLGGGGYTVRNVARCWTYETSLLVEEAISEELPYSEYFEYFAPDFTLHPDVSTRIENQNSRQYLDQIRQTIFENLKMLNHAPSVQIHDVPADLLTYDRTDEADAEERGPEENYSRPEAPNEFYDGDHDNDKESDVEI
Chain of HDAC3 (Q9Y618 395-489 partner): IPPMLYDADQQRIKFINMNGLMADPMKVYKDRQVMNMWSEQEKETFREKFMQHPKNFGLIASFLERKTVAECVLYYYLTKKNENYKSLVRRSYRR

Chain of HDAC2 (Q92769 whole entry): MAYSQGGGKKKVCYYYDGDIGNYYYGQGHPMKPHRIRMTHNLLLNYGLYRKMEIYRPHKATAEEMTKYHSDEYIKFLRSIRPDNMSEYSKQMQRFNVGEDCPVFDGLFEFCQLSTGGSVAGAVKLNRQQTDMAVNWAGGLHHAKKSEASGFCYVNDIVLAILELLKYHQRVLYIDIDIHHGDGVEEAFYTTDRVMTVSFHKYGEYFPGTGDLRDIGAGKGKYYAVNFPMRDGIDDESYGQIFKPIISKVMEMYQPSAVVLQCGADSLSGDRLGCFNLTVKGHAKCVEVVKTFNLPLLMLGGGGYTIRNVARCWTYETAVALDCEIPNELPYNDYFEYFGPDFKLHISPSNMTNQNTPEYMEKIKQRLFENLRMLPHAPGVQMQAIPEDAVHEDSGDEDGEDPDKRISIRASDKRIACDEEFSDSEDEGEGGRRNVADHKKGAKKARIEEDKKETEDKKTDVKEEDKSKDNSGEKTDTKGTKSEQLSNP
Chain of HDAC6 (Q9UBN7 whole entry): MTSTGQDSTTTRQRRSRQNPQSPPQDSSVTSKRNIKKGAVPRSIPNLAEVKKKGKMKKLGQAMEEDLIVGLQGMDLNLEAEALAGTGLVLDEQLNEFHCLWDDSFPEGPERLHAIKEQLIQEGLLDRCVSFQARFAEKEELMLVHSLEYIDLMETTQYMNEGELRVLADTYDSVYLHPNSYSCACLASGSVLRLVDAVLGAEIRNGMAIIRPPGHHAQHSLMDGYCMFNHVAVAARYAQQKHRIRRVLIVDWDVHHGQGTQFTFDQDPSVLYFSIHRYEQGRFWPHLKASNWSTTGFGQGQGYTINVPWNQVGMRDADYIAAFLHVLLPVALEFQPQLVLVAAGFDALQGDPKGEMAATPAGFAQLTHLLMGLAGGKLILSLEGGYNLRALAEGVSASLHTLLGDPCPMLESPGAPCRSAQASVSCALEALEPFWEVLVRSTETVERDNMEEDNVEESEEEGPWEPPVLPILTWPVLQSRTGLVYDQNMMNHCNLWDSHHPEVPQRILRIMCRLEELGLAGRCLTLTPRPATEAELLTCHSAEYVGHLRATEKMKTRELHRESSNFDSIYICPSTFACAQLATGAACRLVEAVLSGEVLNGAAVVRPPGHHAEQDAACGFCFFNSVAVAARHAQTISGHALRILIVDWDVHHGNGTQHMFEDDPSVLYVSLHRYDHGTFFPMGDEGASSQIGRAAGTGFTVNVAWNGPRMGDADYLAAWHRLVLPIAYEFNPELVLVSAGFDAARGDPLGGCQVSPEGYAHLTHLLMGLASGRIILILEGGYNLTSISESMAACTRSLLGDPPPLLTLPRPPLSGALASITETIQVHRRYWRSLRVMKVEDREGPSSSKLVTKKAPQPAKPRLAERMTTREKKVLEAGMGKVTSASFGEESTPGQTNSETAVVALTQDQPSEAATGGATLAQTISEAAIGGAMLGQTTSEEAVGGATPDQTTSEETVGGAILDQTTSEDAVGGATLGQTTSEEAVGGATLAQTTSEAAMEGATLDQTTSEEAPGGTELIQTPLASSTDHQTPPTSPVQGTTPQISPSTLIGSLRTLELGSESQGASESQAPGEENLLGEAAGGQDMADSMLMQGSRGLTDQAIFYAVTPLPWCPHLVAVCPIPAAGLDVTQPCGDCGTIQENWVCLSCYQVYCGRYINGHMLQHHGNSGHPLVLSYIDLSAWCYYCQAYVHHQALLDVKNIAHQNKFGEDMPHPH
Chain of HDAC1 (Q13547 whole entry): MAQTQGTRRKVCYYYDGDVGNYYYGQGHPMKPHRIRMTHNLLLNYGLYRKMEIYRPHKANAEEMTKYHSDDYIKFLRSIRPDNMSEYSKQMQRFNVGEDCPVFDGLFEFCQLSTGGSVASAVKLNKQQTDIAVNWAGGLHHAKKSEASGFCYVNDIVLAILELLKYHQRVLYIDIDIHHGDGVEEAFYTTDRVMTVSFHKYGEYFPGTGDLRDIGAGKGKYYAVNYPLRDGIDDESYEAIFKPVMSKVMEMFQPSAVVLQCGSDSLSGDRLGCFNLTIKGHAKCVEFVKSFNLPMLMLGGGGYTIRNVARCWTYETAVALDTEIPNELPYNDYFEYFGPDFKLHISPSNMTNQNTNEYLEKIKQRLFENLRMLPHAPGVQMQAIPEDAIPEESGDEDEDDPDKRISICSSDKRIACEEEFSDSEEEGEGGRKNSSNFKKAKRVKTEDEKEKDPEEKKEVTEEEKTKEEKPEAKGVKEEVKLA

SMILES	IC50 [1] [nM]	HDAC1 fold over HDAC6 IC50 (selectivity for HDAC6) [2]	IC50 [2] [nM]	HDAC2 fold over HDAC6 IC50 (selectivity for HDAC6) [3]	IC50 [3] [nM]	HDAC3 fold over HDAC6 IC50 (selectivity for HDAC6) [4]	IC50 [4] [nM]
CC(Nc1ncc(C(=O)NO)cn1)(c1ccc(F)cc1)c1ccc(F)cc1 [Compound 96]	9	(271.8x)	2340	(286.2x)	2460	(662.8x)	5710
O=C(NO)c1cnc(Nc2cccc(C(F)(F)F)c2)nc1 [Compound 22]	3	(83.1x)	222	(166.7x)	446	(117x)	313
O=C(NO)c1cnc(Nc2ccc(Cl)cc2)nc1 [Compound 6]	20	(10.1x)	202	(11.6x)	231	(13.3x)	266
CC(Nc1ncc(C(=O)NO)cn1)c1ccncc1 (stereo not drawn) [Compound 85]	4	(18.1x)	67	(26.2x)	96	(36.9x)	135
O=C(NO)c1cnc(NC23CC4CC(CC(C4)C2)C3)nc1 [Compound 58]	9	(60.8x)	552	(77.2x)	701	(119.5x)	1080
O=C(NO)c1cnc(NCc2ccccc2OC(F)(F)F)nc1 [Compound 47]	4	(55.8x)	223	(86.7x)	346	(75.1x)	300
CC(C)(Nc1ncc(C(=O)NO)cn1)c1ccc(F)c(F)c1 [Compound 76]	4	(153.3x)	624	(149.7x)	609	(260x)	1060
O=C(NO)c1cnc(NC2(c3cccs3)CCCCC2)nc1 [Compound 154]	5	(263.9x)	1370	(307.8x)	1600	(647.4x)	3360
O=C(NO)c1cnc(NC2(c3cc(F)cc(F)c3)CCOCC2)nc1 [Compound 155]	7	(37.9x)	262	(34x)	236	(176x)	1220
O=C(NO)c1cnc(NCc2c(CO)cccc2CO)nc1 [Compound 51]	11	(41.2x)	468	(55x)	624	(33.6x)	382
O=C(NO)c1cnc(NC2(c3ccc(F)cc3F)CC2)nc1 [Compound 123]	3	(4.8x)	13	(4.3x)	12	(9.6x)	26
O=C(NO)c1cnc(NC2(c3cc(F)cc(F)c3)CC2)nc1 [Compound 132]	4	(24.4x)	95	(24.4x)	96	(80.8x)	316

Results, then the compound that gave them:

IC50 [1] [nM]	HDAC1 fold over HDAC6 IC50 (selectivity for HDAC6) [2]	IC50 [2] [nM]	HDAC2 fold over HDAC6 IC50 (selectivity for HDAC6) [3]	IC50 [3] [nM]	HDAC3 fold over HDAC6 IC50 (selectivity for HDAC6) [4]	IC50 [4] [nM]	SMILES
3	(43.3x)	140	(48.9x)	159	(160.9x)	521	O=C(NO)c1cnc(NC2(c3ccccc3)CCC2)nc1 [Compound 130]
7	(302.2x)	2230	(403.4x)	2970	(613x)	4520	O=C(NO)c1cnc(NC2(c3ccccc3)CCCCC2)nc1 [Compound 84]
7	(8x)	55	(9x)	62	(18.5x)	128	O=C(NO)c1cnc(NC2(c3ccc(F)c(F)c3)CC2)nc1 [Compound 140]
15	(14.1x)	212	(30.2x)	453	(23.5x)	352	O=C(NO)c1cnc(Nc2cc(Cl)ccc2Cl)nc1 [Compound 12]
7	20x	–	30x	–	27x	–	O=C(NO)c1cnc(Nc2ccccc2)nc1 [Compound 1, N-hydroxy-2-(phenylamino)pyrimidine-5-carboxamide]
3	(7.9x)	25	(10.8x)	34	(18.3x)	58	O=C(NO)c1cnc(NC2(c3ccc(F)cc3Cl)CC2)nc1 [Compound 144]
2	(14.9x)	24	(19.2x)	30	(27.2x)	43	O=C(NO)c1cnc(NCc2ccc(F)c(Cl)c2)nc1 [Compound 53]
9	(339.9x)	3210	(504.7x)	4760	(1428.4x)	13500	O=C(NO)c1cnc(NC2(c3ccc(F)cc3)CCCCC2)nc1 [Compound 100]
2	(7.4x)	13	(11.3x)	21	(18x)	33	O=C(NO)c1cnc(NC2(c3cc4ccccc4s3)CC2)nc1 [Compound 102]
3	(18.3x)	47	(30.2x)	78	(46.4x)	120	O=C(NO)c1cnc(NC2(c3ccc(F)cc3)CC2)nc1 [Compound 81]
6	(18.1x)	104	(23.5x)	135	(66.6x)	384	O=C(NO)c1cnc(NC2(c3cc(C(F)(F)F)cc(C(F)(F)F)c3)CC2)nc1 [Compound 145]
46	(12.6x)	578	(18.1x)	832	(23.9x)	1100	O=C(NO)c1cnc(NC2CCCCC2)nc1 [Compound 103]
3	(215.2x)	711	(296.1x)	978	(679.1x)	2240	O=C(NO)c1cnc(NC2(c3ccccc3)CCCC2)nc1 [Compound 88]
21	(15.7x)	332	(18.1x)	384	(28.3x)	600	O=C(NO)c1cnc(Nc2c(F)c(F)cc(F)c2F)nc1 [Compound 16]
3	(139.2x)	447	(140.9x)	452	(289x)	928	CC(C)(Nc1ncc(C(=O)NO)cn1)c1ccc(Cl)cc1F [Compound 83]
2	(8.7x)	18	(9x)	19	(27.1x)	57	O=C(NO)c1cnc(NC2(c3cccc(OC(F)(F)F)c3)CC2)nc1 [Compound 125]
5	(46x)	241	(100.3x)	526	(92.2x)	484	COc1cc(Nc2ncc(C(=O)NO)cn2)cc(C(F)(F)F)c1 [Compound 21]
4	(74x)	328	(76.9x)	340	(98.1x)	434	O=C(NO)c1cnc(NCc2cnccn2)nc1 [Compound 77]
